# Test system: MV-4-11 cells
# Assay: Gene expression microarray analysis (Affymetrix PrimeView) and GSEA
# Format: cell-based, human
# Set-up: RFU PODN (11730768_x_at) / Fold change /veh PODN (11730768_x_at) / RFU LINC00158 (11744669_a_at) / Fold change /veh LINC00158 (11744669_a_at) / RFU DUSP10 (11751237_a_at) / Fold change /veh DUSP10 (11751237_a_at) / RFU ID3 (11757404_x_at) / Fold change /veh ID3 (11757404_x_at) / RFU PLEKHG5 (11737974_s_at) / Fold change /veh PLEKHG5 (11737974_s_at) / RFU LRRC4B (11730491_at) / Fold change /veh LRRC4B (11730491_at) / RFU GIMAP4 (11747438_a_at) / Fold change /veh GIMAP4 (11747438_a_at) / RFU KRT8 (11758183_x_at) / Fold change /veh KRT8 (11758183_x_at) / RFU CNN1 (11734310_a_at) / Fold change /veh CNN1 (11734310_a_at) / RFU VPS37D (11726825_at) / Fold change /veh VPS37D (11726825_at) / RFU C10orf10 (11716522_x_at) / Fold change /veh C10orf10 (11716522_x_at) / RFU KIR2DL2 /// KIR2DL4 /// KIR2DL5A /// KIR2DL5B /// KIR2DS1 /// KIR2DS2 /// KIR2DS3 /// KIR2DS4 /// KIR3DL3 /// KIR3DL3 /// KIR3DS1 (11738374_at) / Fold change /veh KIR2DL2 /// KIR2DL4 /// KIR2DL5A /// KIR2DL5B /// KIR2DS1 /// KIR2DS2 /// KIR2DS3 /// KIR2DS4 /// KIR3DL3 /// KIR3DL3 /// KIR3DS1 (11738374_at) / RFU C1QL1 (11718748_at) / Fold change /veh C1QL1 (11718748_at) / RFU TMPRSS4 (11747572_a_at) / Fold change /veh TMPRSS4 (11747572_a_at) / RFU HAMP (11756126_x_at) / Fold change /veh HAMP (11756126_x_at) / RFU RNFT2 (11725882_a_at) / Fold change /veh RNFT2 (11725882_a_at) / RFU NR4A2 (11747474_a_at) / Fold change /veh NR4A2 (11747474_a_at) / RFU ABCC12 (11746883_a_at) / Fold change /veh ABCC12 (11746883_a_at) / RFU TMEM136 (11760407_x_at) / Fold change /veh TMEM136 (11760407_x_at) / RFU CLDN22 /// WWC2 (11732394_at) / Fold change /veh CLDN22 /// WWC2 (11732394_at) / RFU HLA-DPB1 (11760878_x_at) / Fold change /veh HLA-DPB1 (11760878_x_at) / RFU SPINT1 (11716480_a_at) / Fold change /veh SPINT1 (11716480_a_at) / RFU GAP43 (11754022_s_at) / Fold change /veh GAP43 (11754022_s_at) / RFU A4GNT (11735810_at) / Fold change /veh A4GNT (11735810_at) / RFU PRB3 (11715151_x_at) / Fold change /veh PRB3 (11715151_x_at) / RFU TUBB4B (11761932_at) / Fold change /veh TUBB4B (11761932_at) / RFU CAPN14 (11732068_a_at) / Fold change /veh CAPN14 (11732068_a_at) / RFU TMCC2 (11721928_a_at) / Fold change /veh TMCC2 (11721928_a_at) / RFU IRGQ (11745062_a_at) / Fold change /veh IRGQ (11745062_a_at) / RFU FAM174B (11720279_a_at) / Fold change /veh FAM174B (11720279_a_at) / RFU TMPRSS4 (11748680_a_at) / Fold change /veh TMPRSS4 (11748680_a_at) / RFU FAM212B (11763350_a_at) / Fold change /veh FAM212B (11763350_a_at) / RFU PLEKHG5 (11743358_a_at) / Fold change /veh PLEKHG5 (11743358_a_at) / RFU ZSCAN30 (11745921_a_at) / Fold change /veh ZSCAN30 (11745921_a_at) / RFU CMKLR1 (11741424_a_at) / Fold change /veh CMKLR1 (11741424_a_at) / RFU LOC101060620 /// MAPK8IP1 (11723275_at) / Fold change /veh LOC101060620 /// MAPK8IP1 (11723275_at) / RFU SPTSSB (11747773_x_at) / Fold change /veh SPTSSB (11747773_x_at) / RFU PRSS12 (11739890_at) / Fold change /veh PRSS12 (11739890_at) / RFU BIN1 (11741810_x_at) / Fold change /veh BIN1 (11741810_x_at) / RFU WNT11 (11732464_a_at) / Fold change /veh WNT11 (11732464_a_at) / RFU C10orf10 (11716521_a_at) / Fold change /veh C10orf10 (11716521_a_at) / RFU C5orf56 (11738089_at) / Fold change /veh C5orf56 (11738089_at) / RFU CYB561 (11721691_x_at) / Fold change /veh CYB561 (11721691_x_at) / RFU ANKRD19P (11752326_a_at) / Fold change /veh ANKRD19P (11752326_a_at) / RFU OR2T12 /// OR2T33 /// OR2T8 (11738714_s_at) / Fold change /veh OR2T12 /// OR2T33 /// OR2T8 (11738714_s_at) / RFU VCAN (11748164_a_at) / Fold change /veh VCAN (11748164_a_at) / RFU JSRP1 (11732532_at) / Fold change /veh JSRP1 (11732532_at) / RFU KRTAP10-11 (11738290_x_at) / Fold change /veh KRTAP10-11 (11738290_x_at) / RFU MYO3A (11730013_a_at) / Fold change /veh MYO3A (11730013_a_at) / RFU EBF3 (11725865_a_at) / Fold change /veh EBF3 (11725865_a_at) / RFU CAMK2N1 (11719241_x_at) / Fold change /veh CAMK2N1 (11719241_x_at) / RFU C5orf56 (11738088_a_at) / Fold change /veh C5orf56 (11738088_a_at) / RFU OLFML3 (11715873_a_at) / Fold change /veh OLFML3 (11715873_a_at) / RFU LOC100653217 /// NTM (11731650_a_at) / Fold change /veh LOC100653217 /// NTM (11731650_a_at) / RFU MAPK11 (11762145_a_at) / Fold change /veh MAPK11 (11762145_a_at) / RFU FIZ1 (11724087_x_at) / Fold change /veh FIZ1 (11724087_x_at) / RFU OASL (11726364_x_at) / Fold change /veh OASL (11726364_x_at) / RFU SOX15 (11748057_x_at) / Fold change /veh SOX15 (11748057_x_at) / RFU CD79A (11719716_a_at) / Fold change /veh CD79A (11719716_a_at) / RFU HIST1H1D (11736915_at) / Fold change /veh HIST1H1D (11736915_at) / RFU CASKIN2 (11723855_a_at) / Fold change /veh CASKIN2 (11723855_a_at) / RFU LOC730098 (11760151_x_at) / Fold change /veh LOC730098 (11760151_x_at) / RFU OR4N2 (11742367_at) / Fold change /veh OR4N2 (11742367_at) / RFU PRRT2 (11749266_a_at) / Fold change /veh PRRT2 (11749266_a_at) / RFU SNX32 (11753110_a_at) / Fold change /veh SNX32 (11753110_a_at) / RFU CDHR5 (11726645_a_at) / Fold change /veh CDHR5 (11726645_a_at) / RFU RCAN1 (11760418_a_at) / Fold change /veh RCAN1 (11760418_a_at) / RFU FAM167A (11723789_a_at) / Fold change /veh FAM167A (11723789_a_at) / RFU FAM26E (11764081_at) / Fold change /veh FAM26E (11764081_at) / RFU ISYNA1 (11749810_s_at) / Fold change /veh ISYNA1 (11749810_s_at) / RFU ACY1 (11761880_at) / Fold change /veh ACY1 (11761880_at) / RFU 11764098_at / Fold change /veh 11764098_at / RFU SAMD14 (11745864_x_at) / Fold change /veh SAMD14 (11745864_x_at) / RFU NPB (11741838_a_at) / Fold change /veh NPB (11741838_a_at) / RFU TMPRSS6 (11731388_a_at) / Fold change /veh TMPRSS6 (11731388_a_at) / RFU KRTAP10-2 (11738614_at) / Fold change /veh KRTAP10-2 (11738614_at) / RFU ARHGAP8 /// PRR5-ARHGAP8 (11727945_x_at) / Fold change /veh ARHGAP8 /// PRR5-ARHGAP8 (11727945_x_at) / RFU KRTAP5-7 /// NADSYN1 (11734609_at) / Fold change /veh KRTAP5-7 /// NADSYN1 (11734609_at) / RFU RASL12 (11751679_a_at) / Fold change /veh RASL12 (11751679_a_at) / RFU CDKN2B (11736163_a_at) / Fold change /veh CDKN2B (11736163_a_at) / RFU PRF1 (11729649_at) / Fold change /veh PRF1 (11729649_at) / RFU, ZNF638 /// ZNF638-IT1 / Fold change vs veh, ZNF638 /// ZNF638-IT1 / RFU, PANK3 / Fold change vs veh, PANK3 / RFU, SH3YL1 / Fold change vs veh, SH3YL1 / RFU, ZEB2 / Fold change vs veh, ZEB2 / RFU, NRIP1 / Fold change vs veh, NRIP1 / RFU, PTTG1IP / Fold change vs veh, PTTG1IP / RFU, CAPN2 / Fold change vs veh, CAPN2 / RFU, MED14 / Fold change vs veh, MED14 / RFU, SNORA58 / Fold change vs veh, SNORA58 / RFU, C1orf63 / Fold change vs veh, C1orf63 / RFU, LRRFIP1 / Fold change vs veh, LRRFIP1 / RFU, NDUFAF7 / Fold change vs veh, NDUFAF7 / RFU, SLC12A2 / Fold change vs veh, SLC12A2 / RFU, IBTK / Fold change vs veh, IBTK / RFU, ESF1 / Fold change vs veh, ESF1 / Fold change vs veh, TMEM50B / RFU, TAOK1 / Fold change vs veh, TAOK1 / RFU, ACBD3 / Fold change vs veh, ACBD3 / RFU, TMA16 / Fold change vs veh, TMA16 / RFU, RWDD3 / Fold change vs veh, RWDD3 / RFU, BCAT1 / Fold change vs veh, BCAT1 / RFU, EDEM3 / Fold change vs veh, EDEM3 / RFU, TMEM33 / Fold change vs veh, TMEM33 / RFU, WDR75 / Fold change vs veh, WDR75 / RFU, AHCTF1 / Fold change vs veh, AHCTF1 / RFU, TFRC / Fold change vs veh, TFRC / RFU, ZDHHC17 / Fold change vs veh, ZDHHC17 / RFU, NOM1 / Fold change vs veh, NOM1 / RFU, ARL8B / Fold change vs veh, ARL8B / RFU, ZBTB11 / Fold change vs veh, ZBTB11 / RFU, TAMM41 / Fold change vs veh, TAMM41 / RFU, KIAA1704 /// LOC100996395 / Fold change vs veh, KIAA1704 /// LOC100996395 / RFU, ING1 / Fold change vs veh, ING1 / RFU, TRMT61B / Fold change vs veh, TRMT61B / RFU, FUBP3 / Fold change vs veh, FUBP3 / RFU, TP53 / Fold change vs veh, TP53 / RFU, TNKS2 / Fold change vs veh, TNKS2 / RFU, ZFP14 / Fold change vs veh, ZFP14 / RFU, ACTR2 / Fold change vs veh, ACTR2 / RFU, PPP3R1 / Fold change vs veh, PPP3R1 / RFU, PIK3R1 / Fold change vs veh, PIK3R1 / RFU, HNRNPA1 / Fold change vs veh, HNRNPA1 / RFU, RNF170 / Fold change vs veh, RNF170 / RFU, ZNF28 / Fold change vs veh, ZNF28 / RFU, RNGTT / Fold change vs veh, RNGTT / RFU, OGT / Fold change vs veh, OGT / RFU, BRD1 / Fold change vs veh, BRD1 / RFU, MARS / Fold change vs veh, MARS / RFU, ZNF655 / Fold change vs veh, ZNF655 / RFU, FAHD1 / Fold change vs veh, FAHD1 / RFU, BDP1 / Fold change vs veh, BDP1 / RFU, LRRCC1 / Fold change vs veh, LRRCC1 / RFU, ARID1A / Fold change vs veh, ARID1A / RFU, ZNF146 / Fold change vs veh, ZNF146 / RFU, ZNF330 / Fold change vs veh, ZNF330 / RFU, GPN3 / Fold change vs veh, GPN3 / RFU, C9orf123 / Fold change vs veh, C9orf123 / RFU, N4BP2L2 / Fold change vs veh, N4BP2L2 / RFU, ARFIP1 / Fold change vs veh, ARFIP1 / RFU, FAM179B / Fold change vs veh, FAM179B / RFU, BCL10 / Fold change vs veh, BCL10 / RFU, UHRF1BP1L / Fold change vs veh, UHRF1BP1L / RFU, BET1 / Fold change vs veh, BET1 / RFU, CNOT2 / Fold change vs veh, CNOT2 / RFU, ZNF268 / Fold change vs veh, ZNF268 / Fold change vs veh, ZNF507 / RFU, DGCR2 / Fold change vs veh, DGCR2 / RFU, WDSUB1 / Fold change vs veh, WDSUB1 / Fold change vs veh, HSP90B1 /// MIR3652 / RFU, ADSS / Fold change vs veh, ADSS / RFU, GK / Fold change vs veh, GK / RFU, ZNF148 / Fold change vs veh, ZNF148 / RFU, TAF9 / Fold change vs veh, TAF9 / RFU, SLC1A5 / Fold change vs veh, SLC1A5 / RFU, SLMO2 / Fold change vs veh, SLMO2 / RFU, ABCC4 / Fold change vs veh, ABCC4 / RFU, LOC101060439 /// RAP1B / Fold change vs veh, LOC101060439 /// RAP1B / RFU, RFX7 / Fold change vs veh, RFX7 / RFU, GTPBP10 / Fold change vs veh, GTPBP10 / RFU, CNEP1R1 / Fold change vs veh, CNEP1R1 / RFU, BIVM-ERCC5 /// ERCC5 / Fold change vs veh, BIVM-ERCC5 /// ERCC5 / RFU, ILF3 / Fold change vs veh, ILF3 / RFU 11762660_at / Fold change /veh 11762660_at / RFU VCAN (11757783_s_at) / Fold change /veh VCAN (11757783_s_at) / RFU DDX43 (11728927_at) / Fold change /veh DDX43 (11728927_at) / RFU KRT8 (11758188_x_at) / Fold change /veh KRT8 (11758188_x_at) / RFU NKD1 (11759106_at) / Fold change /veh NKD1 (11759106_at) / RFU SRD5A1 (11742802_a_at) / Fold change /veh SRD5A1 (11742802_a_at) / RFU TPSAB1 /// TPSB2 (11721975_s_at) / Fold change /veh TPSAB1 /// TPSB2 (11721975_s_at) / RFU GSTM3 (11746129_a_at) / Fold change /veh GSTM3 (11746129_a_at) / RFU IL23R (11737362_x_at) / Fold change /veh IL23R (11737362_x_at) / RFU TMEM51 (11727254_a_at) / Fold change /veh TMEM51 (11727254_a_at) / RFU PIWIL2 (11732686_x_at) / Fold change /veh PIWIL2 (11732686_x_at) / RFU ORM1 (11744905_x_at) / Fold change /veh ORM1 (11744905_x_at) / RFU CCDC152 (11743942_at) / Fold change /veh CCDC152 (11743942_at) / RFU ECM1 (11717891_a_at) / Fold change /veh ECM1 (11717891_a_at) / RFU IL23R (11748794_a_at) / Fold change /veh IL23R (11748794_a_at) / RFU TNFAIP8L3 (11732012_x_at) / Fold change /veh TNFAIP8L3 (11732012_x_at) / RFU MBOAT4 (11741988_at) / Fold change /veh MBOAT4 (11741988_at) / RFU 11764193_at / Fold change /veh 11764193_at / RFU TMEM53 (11763286_at) / Fold change /veh TMEM53 (11763286_at) / RFU MAGEB2 (11727129_at) / Fold change /veh MAGEB2 (11727129_at) / RFU TMEM200A (11744735_a_at) / Fold change /veh TMEM200A (11744735_a_at) / RFU CCDC152 (11751479_a_at) / Fold change /veh CCDC152 (11751479_a_at) / RFU FAM211A (11726209_a_at) / Fold change /veh FAM211A (11726209_a_at) / RFU RGS16 (11746705_a_at) / Fold change /veh RGS16 (11746705_a_at) / RFU VCAN (11755009_s_at) / Fold change /veh VCAN (11755009_s_at) / RFU RHOB (11743442_s_at) / Fold change /veh RHOB (11743442_s_at) / RFU RGS16 (11720943_a_at) / Fold change /veh RGS16 (11720943_a_at) / RFU RGS16 (11720944_at) / Fold change /veh RGS16 (11720944_at) / RFU, VPS4B / Fold change vs veh, VPS4B / RFU, CREB1 / Fold change vs veh, CREB1 / RFU, DNAJC13 / Fold change vs veh, DNAJC13 / RFU, GNAQ / Fold change vs veh, GNAQ / RFU, CDK5R1 / Fold change vs veh, CDK5R1 / RFU, ZRANB3 / Fold change vs veh, ZRANB3 / RFU, CUL4A / Fold change vs veh, CUL4A / RFU, CCNY / Fold change vs veh, CCNY / RFU, UFL1 / Fold change vs veh, UFL1 / RFU, COG3 / Fold change vs veh, COG3 / RFU, DIAPH2 / Fold change vs veh, DIAPH2 / RFU, SKA2 / Fold change vs veh, SKA2 / RFU, AFF3 / Fold change vs veh, AFF3 / RFU, LMF1 / Fold change vs veh, LMF1 / RFU, IPO11 / Fold change vs veh, IPO11 / RFU, DFFB / Fold change vs veh, DFFB / RFU, FOXP1 / Fold change vs veh, FOXP1 / RFU, CARD8 / Fold change vs veh, CARD8 / RFU, STRN3 / Fold change vs veh, STRN3 / RFU, ADK / Fold change vs veh, ADK / RFU, RASSF2 / Fold change vs veh, RASSF2 / RFU, WIPF1 / Fold change vs veh, WIPF1 / RFU, LARP1B / Fold change vs veh, LARP1B / RFU, RASA1 / Fold change vs veh, RASA1 / RFU, RB1 / Fold change vs veh, RB1 / RFU, PPFIA1 / Fold change vs veh, PPFIA1 / RFU, MAT2A / Fold change vs veh, MAT2A / RFU, CCT5 / Fold change vs veh, CCT5 / RFU, WDR92 / Fold change vs veh, WDR92 / RFU, CUX1 / Fold change vs veh, CUX1 / RFU, TTC7A / Fold change vs veh, TTC7A / RFU, TMEM135 / Fold change vs veh, TMEM135 / RFU, DEPTOR / Fold change vs veh, DEPTOR / RFU, CPM / Fold change vs veh, CPM / RFU, DNAJB6 / Fold change vs veh, DNAJB6 / RFU, CACNA2D3 / Fold change vs veh, CACNA2D3 / RFU, DTX4 / Fold change vs veh, DTX4 / RFU, TFCP2 / Fold change vs veh, TFCP2 / RFU, GMCL1 /// GMCL1P1 / Fold change vs veh, GMCL1 /// GMCL1P1 / RFU, AEBP2 / Fold change vs veh, AEBP2 / RFU, SNHG1 /// SNORD22 /// SNORD25 /// SNORD26 /// SNORD27 /// SNORD28 /// SNORD29 /// SNORD31 / Fold change vs veh, SNHG1 /// SNORD22 /// SNORD25 /// SNORD26 /// SNORD27 /// SNORD28 /// SNORD29 /// SNORD31 / Fold change (Aza/veh), C12orf56 (ProbeSet 11735607_a_at) / Fold change (ACY-1035/veh), C12orf56 (ProbeSet 11735607_a_at) / Fold change (Aza/veh), FGFR1OP (ProbeSet 11751329_s_at) / Fold change (ACY-1035/veh), FGFR1OP (ProbeSet 11751329_s_at) / Fold change (Aza/veh), VPS36 (ProbeSet 11739960_a_at) / Fold change (ACY-1035/veh), VPS36 (ProbeSet 11739960_a_at) / RFU SYPL1 (11715823_x_at) / Fold change /veh SYPL1 (11715823_x_at) / RFU IGFBP7 (11715501_s_at) / Fold change /veh IGFBP7 (11715501_s_at) / RFU REEP3 (11722064_at) / Fold change /veh REEP3 (11722064_at) / RFU IGLL1 (11728026_x_at) / Fold change /veh IGLL1 (11728026_x_at): dose or concentration left out as unconfirmed
# Conditions: ProbeSet 11739263_x_at; LIST D
structure (smiles),measurement,value
Nc1ccc(-c2cccs2)cc1NC(=O)c1ccc2c(c1)cc(C1CC1)n2CCN1CCOCC1 [ACY-1035],"Fold change vs veh, VPS4B",0.95

# Reference: publication PMC5218480 (PLoS ONE, 2017)
